Two molecules from patent US20090047287A1, “MODULATION OF BONE FORMATION” (Wyeth, priority 2006, published 2009) can be followed below.

One data set concerns the target T1, Ror2-TrkB chimera (Homo sapiens, UniProt Q01974, T245A).
T1 construct: extracellular domain of Ror2 (aa 1-407) fused to the transmembrane and intracellular domains of TrkB (aa 432-822); expressed in transfected cells
Kind of data set: Ror2-TrkB chimera CRE-luciferase reporter assay in HEK293 cells. Format: cell-based. The following applies: HEK-CRE cells expressing Ror2-TrkB chimera, 24 h, compared to non-specific IgG. The text has this: FIG. 12 illustrates generation of a high throughput, high sensitivity assay for Ror2 activity. A. Schematic representation of the assay that utilizes the signaling pathway of the TrkB receptor. The TrkB receptor is activated by ligand-induced homo-dimerization that causes phosphorylation of Erk and stimulation of the cAMP response element (CRE) in the promoter of target genes. We generated a chimeric receptor consisting of the extracellular domain of Ror2 (aa 1-407) fused to the transmembrane and intracellular domains of TrkB (aa 432-822). When using this chimera, agents that cause Ror2 dimerization activate TrkB signaling pathway and this activation can be assessed by a CRE promoter-luciferase reporter assay. B. HEK293 cells were stably transfected with the Ror2-TrkB chimera and CRE-luciferase plasmids, treated with the indicated amounts of the anti-Ror2 antibody or non-specific IgG for 24 h, and luciferase activity was assessed. Luciferase activity observed upon treatment with the non-specific IgG was set at 1. […]
The TrkB receptor is activated by ligand-induced homo-dimerization that causes phosphorylation of Erk and stimulation of the cAMP response element (CRE) in the promoter of target genes. […] Colonies were grown at 37 C with 350 μg/ml hygromycin and levels of Ror2-TrkB expression were assessed by western immunoblotting and immunocytochemistry. […]
On the technique in general: In a reporter assay the amount or activity of a reporter protein is the signal.

The next data set concerns 14-3-3β protein. Kind of data set: Ror2 activation in U2OS cells, phosphotyrosine precipitation, 14-3-3β blot. Particulars: untransfected U2OS cells, antibody 1 h at 37° C., vs IgG control. Format: cell-based, human. As to the method: (§1) Cells were solubilized in lysis buffer (150 mM NaCl, 50 mM Tris-HCl, pH 7.5, 1 mM EDTA, 1% Triton X100) supplemented with protease and phosphatase inhibitor cocktails (Sigma) and the extracts were clarified by centrifugation at 10,000×g for 10 min at 4° C. For Flag immunoprecipitation, 1 mg of total cell lysates was incubated with 30 μl of M2 Flag affinity agarose (Sigma) for 1 h with rotation at 4° C. The beads were collected by centrifugation and washed three times in lysis buffer containing 350 mM NaCl and three times in lysis buffer. For 14-3-3β precipitation, 15 μl of 14-3-3β antibody was incubated with 30 μl of protein A sepharose in 1 ml of lysis buffer overnight at 4° C. and the beads were collected by centrifugation and washed in lysis buffer prior to addition of 1 mg of total cell lysates. The binding reaction was carried out for 2 h at 4° C. with mild rotation and the beads were collected and washed as for Flag precipitation. For phosphotyrosine precipitation, 1 mg (for detecting over-expressed proteins) or 1.5 mg (for detecting endogenous proteins) of cellular extract was added to 100 μl of G410 beads and allowed to attach for 3 h at 4° C. At this time, P-Tyr-100 immobilized antibody (100 μl) was added to the mix for an additional 3 h. All beads were collected by centrifugation and washed as for Flag precipitation. […]

In a further data set the target is T2, Ror2 receptor (Homo sapiens, UniProt Q01974).
T2 construct: expressed in transfected cells; host or cells: U2OS
Kind of data set: Ror2 dimerization in U2OS cells, Flag/His-tagged Ror2 co-immunoprecipitation. Format: cell-based. Particulars: antibody 1 h at 37 C, vs non-specific goat IgG. As to the method: For Ror2 plasmid transfections, U2OS cells were seeded at ˜80% confluent density and transfected 24 h later with 11 μg of total plasmid DNA per 19.6 cm^2 using Fugene6 transfection reagent (Roche Applied Science, Indianapolis, Ind.) per manufacturer's instructions. For siRNA transfections, U2OS cells were plated on 6-well plates at 52,000 cells/cm^2 and transfected 24 h later with 25 nM of Ror2 siRNA or non-specific siRNA (both from Dharmacon Inc., Lafayette, Colo.) using 10 μl of Lipofectamine 2000 reagent per manufacturer's instructions.
Cells were solubilized in lysis buffer (150 mM NaCl, 50 mM Tris-HCl, pH 7.5, 1 mM EDTA, 1% Triton X100) supplemented with protease and phosphatase inhibitor cocktails (Sigma) and the extracts were clarified by centrifugation at 10,000×g for 10 min at 4° C. For Flag immunoprecipitation, 1 mg of total cell lysates was incubated with 30 μl of M2 Flag affinity agarose (Sigma) for 1 h with rotation at 4° C. The beads were collected by centrifugation and washed three times in lysis buffer containing 350 mM NaCl and three times in lysis buffer. For 14-3-3β precipitation, 15 μl of 14-3-3β antibody was incubated with 30 μl of protein A sepharose in 1 ml of lysis buffer overnight at 4° C. and the beads were collected by centrifugation and washed in lysis buffer prior to addition of 1 mg of total cell lysates. […]

Data set [1] relates to human mesenchymal stem cells (hMSC). The data set can be described thus: Mineralized matrix formation in hMSC, alizarin red-S staining. It counts as cell-based. As to the method:
Human MSC were seeded at 6,000/cm^2 in 12-, or 6-well plates and allowed to adhere and proliferate overnight. Cells were infected for 24 h in 0.4 ml/cm^2 MSCGM using Ror2, Ror2KD, or β-gal adenoviruses at multiplicity of infection (MOI)=750 in presence of hCAR (MOI=750) to improve infection efficiency. After 24 h, cells were washed once in PBS and MSCGM, MSCGM supplemented with 0.05 mM ascorbic acid and 10 mM β-glycerophosphate, or MSCGM containing adipogenic supplements (PT-3004, Cambrex) were added. Where indicated, 100 nM dexamethasone (dex) and/or the indicated antibodies were added to the medium. For shRNA infection, cells were seeded at 6,000/cm^2 in 12- or 6-well plates and allowed to adhere and proliferate for 3 days. Cells were infected for 72 h in 0.4 ml/cm^2 MSCGM using adenoviruses coding for Ror2-specific shRNA or EGFP-specific shRNA at 4,000 viral particles per cell (based on the original seeding density) in presence of hCAR (MOI=750). After 72 h, cells were washed once in PBS, and MSCGM or MSCGM supplemented with 0.05 mM ascorbic acid, 10 mM β-glycerophosphate were added. Where indicated 100 nM dex and/or specific antibodies were added. Every 5 days, either the entire medium or ½ of it was replaced with fresh medium.
Formation of mineralized nodules by hMSC was determined on 12-well plates by alizarin red-S histochemical staining. The cells and matrix were fixed at RT for 1 h with 70% (v/v) ethanol, washed with de-ionized water and stained for 10 min at RT with 40 mM alizarin red-S, pH 4.2. The stained matrix was washed with de-ionized water and photographed. To quantify the level of alizarin red-S staining, the dye was eluted with 1 ml/well of 10% (w/v) Cetylpyridinium Chloride. Alizarin red-S in the eluted samples was quantified (versus a standard curve of 0-800 μM dye) at 562 nm with a microplate reader.

A further data set concerns the target T3, Ror2 tyrosine kinase (Homo sapiens, UniProt Q01974).
T3 construct: western immunoblotting for the endogenous Ror2 protein; endogenous in cells; host or cells: U2OS
Kind of data set: Ror2 activation in U2OS cells, phosphotyrosine precipitation, Ror2 blot. Format: cell-based. Particulars: untransfected U2OS cells, antibody 1 h at 37° C., vs IgG control. As to the method: as §1

The next data set has as its system mouse calvarial bones. Kind of data set: Ex vivo mouse calvarial culture with shRNA adenovirus and antibody, histomorphometry (Bioquant). Format: cell-based. The following applies: mouse calvariae, 7 days; shRNA 5×10^7 viral particles/ml, antibody 12 μg/ml; vs scrambled shRNA and IgG. As to the method:
We next tested if in vitro effects of Ror2 activation and 14-3-3β inhibition translate into increased bone formation in ex vivo organ cultures. Calvarial bones of 4 days old mouse littermates were infected with adenoviruses containing scrambled shRNA or 14-3-3β-specific shRNA at 5×10^7 viral particles/ml; and 48 h later were treated with 12 μg/ml of anti-Ror2 antibody or non-specific IgG in presence of 15 μg/ml calcein. After 7 days of culture with adenoviruses and antibodies, the bones were stained with hematoxylin-eosin and consistent 300 μm stretches (450 μm away from frontal sutures) were subjected to histomorphometric analysis using Bioquant-NOVA MR 5.50.8 (Nashville, Tenn.). Under control conditions of scrambled shRNA infection and IgG treatment, 600 μm length of calvaria contained 9394±1333 μm^2 of bone area and 39.5±7.4 osteoblasts.

The target of data set [2] is T4, purified recombinant human GST-14-3-3β (Biomol), P31946.
T4 chain: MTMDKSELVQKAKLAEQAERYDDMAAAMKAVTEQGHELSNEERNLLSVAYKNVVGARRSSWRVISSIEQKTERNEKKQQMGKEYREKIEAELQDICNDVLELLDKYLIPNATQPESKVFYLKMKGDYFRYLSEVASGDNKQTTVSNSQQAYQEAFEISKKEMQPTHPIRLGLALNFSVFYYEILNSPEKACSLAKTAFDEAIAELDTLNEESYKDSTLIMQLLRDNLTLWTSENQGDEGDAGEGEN

T1 sequence (Q01974 with tags, fused parts or gaps T245A): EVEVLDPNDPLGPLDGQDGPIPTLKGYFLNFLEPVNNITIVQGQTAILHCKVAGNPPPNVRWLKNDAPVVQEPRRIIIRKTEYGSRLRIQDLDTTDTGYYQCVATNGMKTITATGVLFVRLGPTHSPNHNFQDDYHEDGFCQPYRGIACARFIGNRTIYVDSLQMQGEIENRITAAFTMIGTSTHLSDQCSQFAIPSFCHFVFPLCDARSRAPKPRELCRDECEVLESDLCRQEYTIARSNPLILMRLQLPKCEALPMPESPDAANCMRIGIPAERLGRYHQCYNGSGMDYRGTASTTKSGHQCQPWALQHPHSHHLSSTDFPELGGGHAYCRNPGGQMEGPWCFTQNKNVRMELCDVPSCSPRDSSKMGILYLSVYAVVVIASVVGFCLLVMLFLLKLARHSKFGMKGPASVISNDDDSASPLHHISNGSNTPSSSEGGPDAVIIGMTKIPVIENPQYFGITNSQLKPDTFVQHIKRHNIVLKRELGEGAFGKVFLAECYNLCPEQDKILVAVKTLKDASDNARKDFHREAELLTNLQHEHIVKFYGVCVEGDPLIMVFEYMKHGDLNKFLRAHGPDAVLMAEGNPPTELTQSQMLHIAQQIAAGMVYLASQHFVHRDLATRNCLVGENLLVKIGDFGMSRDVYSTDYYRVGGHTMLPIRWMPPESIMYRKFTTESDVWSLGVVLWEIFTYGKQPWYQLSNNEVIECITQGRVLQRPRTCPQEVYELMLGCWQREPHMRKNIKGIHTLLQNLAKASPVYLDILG
T3 sequence (Q01974 34-943): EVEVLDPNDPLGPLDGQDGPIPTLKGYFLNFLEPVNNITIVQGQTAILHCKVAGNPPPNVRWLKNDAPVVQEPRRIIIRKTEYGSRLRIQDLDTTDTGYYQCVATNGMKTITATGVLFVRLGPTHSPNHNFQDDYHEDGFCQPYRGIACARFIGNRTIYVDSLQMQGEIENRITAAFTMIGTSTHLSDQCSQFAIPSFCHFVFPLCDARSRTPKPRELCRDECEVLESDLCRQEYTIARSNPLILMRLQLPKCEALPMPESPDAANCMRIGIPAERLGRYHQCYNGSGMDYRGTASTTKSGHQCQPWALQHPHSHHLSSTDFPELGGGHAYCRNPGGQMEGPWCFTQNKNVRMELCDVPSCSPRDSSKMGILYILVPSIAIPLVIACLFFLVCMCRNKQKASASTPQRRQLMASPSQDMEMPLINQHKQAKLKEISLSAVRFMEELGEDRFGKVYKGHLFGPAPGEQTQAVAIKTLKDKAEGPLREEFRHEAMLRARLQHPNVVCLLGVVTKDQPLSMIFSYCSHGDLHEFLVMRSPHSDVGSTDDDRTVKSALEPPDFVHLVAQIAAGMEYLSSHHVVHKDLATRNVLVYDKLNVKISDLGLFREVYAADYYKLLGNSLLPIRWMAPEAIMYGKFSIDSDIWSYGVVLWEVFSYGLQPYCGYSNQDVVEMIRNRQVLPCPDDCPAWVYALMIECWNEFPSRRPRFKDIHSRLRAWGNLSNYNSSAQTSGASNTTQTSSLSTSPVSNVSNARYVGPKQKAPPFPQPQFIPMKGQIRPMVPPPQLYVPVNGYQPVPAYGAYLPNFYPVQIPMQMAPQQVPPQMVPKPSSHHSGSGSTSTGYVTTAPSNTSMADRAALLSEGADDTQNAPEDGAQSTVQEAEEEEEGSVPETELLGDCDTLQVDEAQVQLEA
T2 sequence (Q01974 34-943): as above
T2 sequence (Q01974 34-943): as above

In the case of “anti-Ror2 antibody: Ror2-specific goat polyclonal IgG raised against the extracellular domain of human Ror2, R&D Systems, AF2064”, the “luciferase activity (CRE promoter)” value with Ror2-TrkB chimera is given as “robust dose-dependent increase”. Besides, in the data set with 14-3-3β protein, the “phosphorylation of 14-3-3β protein” value is recorded as “phosphorylation”. In the data set with Ror2 receptor, the “Ror2 homodimer formation (His-tagged with Flag-tagged Ror2)” value is on record as “strongly enhanced”. For the same molecule, the “antibody effect on matrix mineralization when Ror2 expression is inhibited” value in data set [1] (hMSC infected with Ror2-specific shRNA, 100 nM dex, 9 days) is “disappeared”. Also, the “calcified matrix formation in absence of dex” value in data set [1] (hMSC infected with Ror2 adenovirus, no dex, 19 days, vs non-specific goat IgG) is recorded as “induced calcified matrix formation”. Moreover, in data set [1] (hMSC, osteogenic cocktail with 100 nM dex, increasing amounts of IgG, 9 days), the “extent of calcified matrix formation (alizarin red-S)” value is reported as “dose-dependently increased”. In the data set with Ror2 tyrosine kinase, the “autophosphorylation of the Ror2 kinase” value is “significant autophosphorylation”. For the same molecule, in the data set with mouse calvarial bones, the “increase in the osteoblast number” value turned out to be 85% and the “increase in the total bone area” value stood at 50%.

B1: purified recombinant GST-tagged cytosolic domain of human Ror2 (Invitrogen) (protein)
chain: VCMCRNKQKASASTPQRRQLMASPSQDMEMPLINQHKQAKLKEISLSAVRFMEELGEDRFGKVYKGHLFGPAPGEQTQAVAIKTLKDKAEGPLREEFRHEAMLRARLQHPNVVCLLGVVTKDQPLSMIFSYCSHGDLHEFLVMRSPHSDVGSTDDDRTVKSALEPPDFVHLVAQIAAGMEYLSSHHVVHKDLATRNVLVYDKLNVKISDLGLFREVYAADYYKLLGNSLLPIRWMAPEAIMYGKFSIDSDIWSYGVVLWEVFSYGLQPYCGYSNQDVVEMIRNRQVLPCPDDCPAWVYALMIECWNEFPSRRPRFKDIHSRLRAWGNLSNYNSSAQTSGASNTTQTSSLSTSPVSNVSNARYVGPKQKAPPFPQPQFIPMKGQIRPMVPPPQLYVPVNGYQPVPAYGAYLPNFYPVQIPMQMAPQQVPPQMVPKPSSHHSGSGSTSTGYVTTAPSNTSMADRAALLSEGADDTQNAPEDGAQSTVQEAEEEEEGSVPETELLGDCDTLQVDEAQVQLEA
For B1, the “in vitro kinase assay, immunoblot with phosphotyrosine antibody” value in data set [2] was “Ror2c phosphorylated both 14-3-3 β and itself”.
